According to article PMC11926855, “Photochemistry of Receptor-Bound Flavin Resolved in Living Human Cells by Infrared Spectroscopy” (Journal of the American Chemical Society, 2025):

How the values were obtained:
[1] = biological target: T1, LOV (LOV sensor of aureochrome1a) (Phaeodactylum tricornutum, UniProt A0A140UHJ0, I28V); assay: light-induced FTIR difference spectroscopy in vitro; format: binding; conditions: wild type compared with I264V; covalent photoadduct with Cys287 on illumination
T1 construct: isolated LOV sensor domain without bZIP effector; transiently transfected HEK cells, also E. coli cells and in vitro
T1 sequence (A0A140UHJ0 entry or part of it I28V): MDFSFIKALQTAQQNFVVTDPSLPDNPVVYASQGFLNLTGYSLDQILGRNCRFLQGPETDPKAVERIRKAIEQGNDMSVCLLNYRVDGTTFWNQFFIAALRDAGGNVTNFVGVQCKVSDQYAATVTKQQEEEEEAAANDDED

[2] = biological target: T2, LOV (LOV sensor of aureochrome1a) (Phaeodactylum tricornutum, UniProt A0A140UHJ0, I28V, form not given); assay: light-induced in-cell ATR-FTIR difference spectroscopy (ICIRD); format: cell-based; conditions: living HEK cells, 37 °C, blue light; covalent photoadduct with Cys287 on illumination, noncovalent in dark; also in vitro and E. coli cells
T2 construct: isolated LOV sensor domain without bZIP effector; transiently transfected HEK cells, also E. coli cells and in vitro
T2 sequence (A0A140UHJ0 entry or part of it I28V, form open): as the sequence (A0A140UHJ0 entry or part of it I28V) above

[3] = biological target: T3, pCRY-PHR (Chlamydomonas reinhardtii, UniProt Q42696); assay: as above; format: cell-based; conditions: living HEK cells, 37 °C, blue light; noncovalent; oxidized flavin to flavin neutral radical
T3 construct: gene CPH1; photolyase homology region (PHR) without CCT, mCherry fused as reporter; stably transfected HEK cells, also E. coli cells
T3 sequence (Q42696 entry or part of it): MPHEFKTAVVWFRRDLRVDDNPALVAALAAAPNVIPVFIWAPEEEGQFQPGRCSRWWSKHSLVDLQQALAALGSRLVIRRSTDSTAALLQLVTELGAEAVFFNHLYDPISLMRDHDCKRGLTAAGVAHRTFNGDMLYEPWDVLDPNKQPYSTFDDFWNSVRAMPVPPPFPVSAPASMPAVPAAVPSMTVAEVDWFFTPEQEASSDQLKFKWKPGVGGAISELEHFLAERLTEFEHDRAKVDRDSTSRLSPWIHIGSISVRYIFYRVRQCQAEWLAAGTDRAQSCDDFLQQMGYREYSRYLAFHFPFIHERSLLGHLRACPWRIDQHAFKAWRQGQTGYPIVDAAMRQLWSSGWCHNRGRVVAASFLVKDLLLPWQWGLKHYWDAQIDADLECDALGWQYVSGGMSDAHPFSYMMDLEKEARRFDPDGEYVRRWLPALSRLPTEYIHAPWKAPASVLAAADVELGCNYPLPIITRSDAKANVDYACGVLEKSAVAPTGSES

Structure (SMILES) | light-induced FTIR difference spectroscopy in vitro [1] | light-induced in-cell ATR-FTIR difference spectroscopy (ICIRD) [2] | light-induced in-cell ATR-FTIR difference spectroscopy (ICIRD) [3]
Cc1cc2nc3c(=O)[nH]c(=O)nc-3n(C[C@H](O)[C@H](O)[C@H](O)COP(=O)(O)O)c2cc1C [flavin mononucleotide] | without altering the mechanism (Figure S6A) | formation of the cysteine adduct from the oxidized flavin | 
Cc1cc2nc3c(=O)[nH]c(=O)nc-3n(C[C@H](O)[C@H](O)[C@H](O)COP(=O)(O)OP(=O)(O)OC[C@H]3O[C@@H](n4cnc5c(N)ncnc54)[C@H](O)[C@@H]3O)c2cc1C [flavin adenine dinucleotide] |  |  | photoreaction of the oxidized flavin to the flavin neutral radical in pCRY-PHR
